Test: xn = mol fraction of the nth substance listed
Conditions: Gas, Buoyancy - hydrostatic balance with magnetic suspension - one sinker

C=C(F)C(F)(F)F [2,3,3,3-tetrafluoro-1-propene] + CCC
Conditions | mass density [kg/m3]
265.46 K, 101.2 kPa, x1 = 1 | 5.404
265.48 K, 207.2 kPa, x1 = 1 | 11.507
265.55 K, 106.5 kPa, x1 = 0.8116 | 5.018
265.56 K, 107.5 kPa, x1 = 0.583 | 4.254
265.57 K, 104 kPa, x1 = 0.0906 | 2.433
265.57 K, 181.7 kPa, x1 = 0.8116 | 8.775
265.57 K, 198.3 kPa, x1 = 0.583 | 8.052
265.57 K, 206.2 kPa, x1 = 0.0906 | 4.954
265.58 K, 299.3 kPa, x1 = 0.0906 | 7.374
265.59 K, 295.1 kPa, x1 = 0.583 | 12.343
265.6 K, 249 kPa, x1 = 0.8116 | 12.31
270.36 K, 101 kPa, x1 = 1 | 5.279
270.38 K, 164.6 kPa, x1 = 1 | 8.792
270.38 K, 250.3 kPa, x1 = 1 | 13.798
270.4 K, 103.2 kPa, x1 = 0.2546 | 2.918
270.41 K, 182.2 kPa, x1 = 0.2546 | 5.239
270.42 K, 267 kPa, x1 = 0.2546 | 7.839
270.44 K, 102.4 kPa, x1 = 0.0906 | 2.353
270.44 K, 194.1 kPa, x1 = 0.0906 | 4.555
270.44 K, 338.6 kPa, x1 = 0.0906 | 8.243
270.45 K, 102.6 kPa, x1 = 0.583 | 3.972
270.45 K, 215 kPa, x1 = 0.583 | 8.58
270.47 K, 349 kPa, x1 = 0.583 | 14.488
270.5 K, 105.1 kPa, x1 = 0.8116 | 4.852
270.5 K, 182.6 kPa, x1 = 0.8116 | 8.631
270.5 K, 286.6 kPa, x1 = 0.8116 | 14.015
275.39 K, 106.2 kPa, x1 = 1 | 5.448
275.4 K, 208.6 kPa, x1 = 1 | 11.064
275.41 K, 188.7 kPa, x1 = 0.2546 | 5.334
275.41 K, 306 kPa, x1 = 0.2546 | 8.898
275.42 K, 303.7 kPa, x1 = 1 | 16.657
275.43 K, 404.2 kPa, x1 = 0.2546 | 12.054
275.45 K, 102.2 kPa, x1 = 0.583 | 3.894
275.45 K, 198.4 kPa, x1 = 0.583 | 7.744
275.46 K, 103.9 kPa, x1 = 0.0906 | 2.338
275.46 K, 196 kPa, x1 = 0.0906 | 4.504
275.46 K, 282.9 kPa, x1 = 0.0906 | 6.633
275.47 K, 107.9 kPa, x1 = 0.8116 | 4.886
275.47 K, 211 kPa, x1 = 0.8116 | 9.844
275.47 K, 300.7 kPa, x1 = 0.583 | 12.066
275.47 K, 374.9 kPa, x1 = 0.0906 | 8.996
275.49 K, 325.2 kPa, x1 = 0.8116 | 15.724
275.49 K, 415.1 kPa, x1 = 0.583 | 17.223
280.28 K, 103.6 kPa, x1 = 1 | 5.208
280.29 K, 176.6 kPa, x1 = 1 | 9.076
280.29 K, 274 kPa, x1 = 1 | 14.527
280.29 K, 356.2 kPa, x1 = 1 | 19.43
280.31 K, 101.5 kPa, x1 = 0.2546 | 2.757
280.31 K, 195.7 kPa, x1 = 0.2546 | 5.424
280.31 K, 360.4 kPa, x1 = 0.2546 | 10.374
280.31 K, 476.4 kPa, x1 = 0.2546 | 14.119
280.32 K, 279.7 kPa, x1 = 0.2546 | 7.895
280.33 K, 202 kPa, x1 = 0.583 | 7.713
280.34 K, 102.8 kPa, x1 = 0.583 | 3.835
280.34 K, 300.9 kPa, x1 = 0.583 | 11.781
280.34 K, 401.2 kPa, x1 = 0.583 | 16.148
280.35 K, 481.2 kPa, x1 = 0.583 | 19.822
280.36 K, 103.6 kPa, x1 = 0.8116 | 4.599
280.36 K, 106.5 kPa, x1 = 0.0906 | 2.352
280.37 K, 190.7 kPa, x1 = 0.8116 | 8.666
280.37 K, 207.3 kPa, x1 = 0.0906 | 4.678
280.38 K, 294.7 kPa, x1 = 0.8116 | 13.792
280.39 K, 315.2 kPa, x1 = 0.0906 | 7.287
280.4 K, 369 kPa, x1 = 0.8116 | 17.665
280.4 K, 425 kPa, x1 = 0.0906 | 10.088
285.27 K, 258.8 kPa, x1 = 1 | 13.34
285.28 K, 104.7 kPa, x1 = 1 | 5.162
285.28 K, 164.2 kPa, x1 = 1 | 8.23
285.28 K, 358.5 kPa, x1 = 1 | 19.078
285.29 K, 306.8 kPa, x1 = 0.2546 | 8.517
285.29 K, 414.7 kPa, x1 = 0.2546 | 11.796
285.29 K, 520.3 kPa, x1 = 0.2546 | 15.183
285.3 K, 104 kPa, x1 = 0.2546 | 2.771
285.3 K, 204 kPa, x1 = 0.2546 | 5.541
285.32 K, 104.6 kPa, x1 = 0.583 | 3.829
285.32 K, 198.9 kPa, x1 = 0.583 | 7.432
285.32 K, 309.1 kPa, x1 = 0.583 | 11.855
285.32 K, 414.1 kPa, x1 = 0.583 | 16.308
285.33 K, 524.2 kPa, x1 = 0.583 | 21.282
285.35 K, 103.9 kPa, x1 = 0.0906 | 2.256
285.35 K, 107.3 kPa, x1 = 0.8116 | 4.677
285.35 K, 203.4 kPa, x1 = 0.8116 | 9.079
285.36 K, 205.6 kPa, x1 = 0.0906 | 4.552
285.37 K, 298.4 kPa, x1 = 0.0906 | 6.733
285.37 K, 311 kPa, x1 = 0.8116 | 14.287
285.38 K, 402.5 kPa, x1 = 0.0906 | 9.29
285.38 K, 413.6 kPa, x1 = 0.8116 | 19.58
285.39 K, 494.1 kPa, x1 = 0.0906 | 11.653
290.25 K, 583.7 kPa, x1 = 0.583 | 23.524
290.38 K, 102.2 kPa, x1 = 1 | 4.937
290.39 K, 184.5 kPa, x1 = 1 | 9.113
290.4 K, 203.9 kPa, x1 = 0.583 | 7.494
290.4 K, 308.8 kPa, x1 = 1 | 15.792
290.4 K, 421.2 kPa, x1 = 1 | 22.298
290.41 K, 103.5 kPa, x1 = 0.583 | 3.727
290.41 K, 300.6 kPa, x1 = 0.583 | 11.287
290.41 K, 403.8 kPa, x1 = 0.583 | 15.532
290.41 K, 496.6 kPa, x1 = 0.583 | 19.555
290.42 K, 102.2 kPa, x1 = 0.2546 | 2.673
290.42 K, 202.4 kPa, x1 = 0.2546 | 5.395
290.42 K, 297.9 kPa, x1 = 0.2546 | 8.09
290.42 K, 393.4 kPa, x1 = 0.2546 | 10.9
290.43 K, 490.8 kPa, x1 = 0.2546 | 13.893
290.44 K, 106.8 kPa, x1 = 0.8116 | 4.568
290.44 K, 199.7 kPa, x1 = 0.8116 | 8.728
290.44 K, 298.5 kPa, x1 = 0.8116 | 13.363
290.44 K, 586.4 kPa, x1 = 0.2546 | 16.977
290.46 K, 104.6 kPa, x1 = 0.0906 | 2.225
290.46 K, 208.6 kPa, x1 = 0.0906 | 4.52
290.46 K, 314.2 kPa, x1 = 0.0906 | 6.95
290.46 K, 380.2 kPa, x1 = 0.8116 | 17.392
290.46 K, 409.5 kPa, x1 = 0.0906 | 9.237
290.46 K, 465.4 kPa, x1 = 0.8116 | 21.81
290.46 K, 539.6 kPa, x1 = 0.0906 | 12.53
295.4 K, 101.7 kPa, x1 = 1 | 4.829
295.4 K, 196.9 kPa, x1 = 1 | 9.565
295.4 K, 400.6 kPa, x1 = 1 | 20.565
295.4 K, 600.7 kPa, x1 = 1 | 32.885
295.41 K, 305.3 kPa, x1 = 1 | 15.255
295.41 K, 510.2 kPa, x1 = 1 | 27.092
295.43 K, 213.4 kPa, x1 = 0.2546 | 5.607
295.44 K, 312 kPa, x1 = 0.2546 | 8.352
295.44 K, 420 kPa, x1 = 0.2546 | 11.485
295.44 K, 526.9 kPa, x1 = 0.2546 | 14.734
295.45 K, 511.2 kPa, x1 = 0.583 | 19.692
295.45 K, 638.2 kPa, x1 = 0.2546 | 18.298
295.46 K, 105.6 kPa, x1 = 0.583 | 3.727
295.46 K, 202.1 kPa, x1 = 0.583 | 7.273
295.46 K, 304.8 kPa, x1 = 0.583 | 11.205
295.46 K, 309.4 kPa, x1 = 0.0906 | 6.711
295.46 K, 410.8 kPa, x1 = 0.583 | 15.457
295.46 K, 411.3 kPa, x1 = 0.0906 | 9.102
295.47 K, 104.2 kPa, x1 = 0.0906 | 2.174
295.47 K, 209.6 kPa, x1 = 0.0906 | 4.463
295.47 K, 517.9 kPa, x1 = 0.0906 | 11.713
295.47 K, 624.6 kPa, x1 = 0.583 | 24.759
295.48 K, 105.6 kPa, x1 = 0.8116 | 4.43
295.48 K, 198.1 kPa, x1 = 0.8116 | 8.481
295.48 K, 304 kPa, x1 = 0.8116 | 13.338
295.48 K, 403.2 kPa, x1 = 0.8116 | 18.133
295.48 K, 629.5 kPa, x1 = 0.0906 | 14.594
295.5 K, 514.3 kPa, x1 = 0.8116 | 23.825
300.2 K, 668.8 kPa, x1 = 1 | 36.434
300.21 K, 108 kPa, x1 = 1 | 5.039
300.21 K, 218.9 kPa, x1 = 1 | 10.489
300.21 K, 324 kPa, x1 = 1 | 15.933
300.21 K, 439.4 kPa, x1 = 1 | 22.291
300.21 K, 545.8 kPa, x1 = 1 | 28.564
300.21 K, 702.5 kPa, x1 = 0.0906 | 16.204
300.23 K, 569.7 kPa, x1 = 0.8116 | 26.154
300.24 K, 599.9 kPa, x1 = 0.0906 | 13.531
300.24 K, 701 kPa, x1 = 0.583 | 27.648
300.25 K, 190.5 kPa, x1 = 0.0906 | 3.98
300.25 K, 392.5 kPa, x1 = 0.8116 | 17.228
300.25 K, 396.6 kPa, x1 = 0.0906 | 8.595
300.25 K, 489.8 kPa, x1 = 0.8116 | 22.015
300.25 K, 506.5 kPa, x1 = 0.0906 | 11.208
300.25 K, 600.3 kPa, x1 = 0.583 | 23.086
300.26 K, 102.6 kPa, x1 = 0.583 | 3.557
300.26 K, 104.5 kPa, x1 = 0.0906 | 2.152
300.26 K, 106.3 kPa, x1 = 0.8116 | 4.378
300.26 K, 200.3 kPa, x1 = 0.583 | 7.077
300.26 K, 298.9 kPa, x1 = 0.583 | 10.761
300.26 K, 300 kPa, x1 = 0.0906 | 6.389
300.26 K, 301.1 kPa, x1 = 0.8116 | 12.94
300.26 K, 506.5 kPa, x1 = 0.583 | 19.062
300.27 K, 198.3 kPa, x1 = 0.8116 | 8.334
300.27 K, 400.3 kPa, x1 = 0.583 | 14.716

Reference: the NIST ThermoML archive (doi:10.1016/j.jct.2016.12.029)
